Where no end group is shown, it is not given here. [ ]: non-standard residue; d: D form. Lys(Me2) = CN(C)CCCC[C@H](N)C(=O)O
Experiments:
Experiment in all cases: Histone peptide microarray
Assay type in all cases: binding, human
PHF2 = conditions: for Array Heatmap signal, PHF2: histone peptide array, GST-tagged reader, arrays performed twice, n of 4
Summary of the method: (§1)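 Using an optimized microarray protocol, purified GST-tagged PHD fingers were incubated at 0.5 μM on 293 histone peptides with single or multiple modifications, and array signal was recorded as the average of 4 replicates.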

DIDO1 = conditions: for Array Heatmap signal, DIDO1: histone peptide array, GST-tagged reader, arrays performed twice, n of 4
Summary of the method: as §1

PHRF1 (RP) = conditions: for Array Heatmap signal, PHRF1 (RP): histone peptide array, GST-tagged reader, arrays performed twice, n of 4
Summary of the method: as §1

CHD4 (PPCC) = conditions: for Array Heatmap signal, CHD4 (PPCC): histone peptide array, GST-tagged reader, PPCC = Dual PHD + Dual Chromodomain, arrays performed twice, n of 4
Summary of the method: as §1

MLL5 = conditions: for Array Heatmap signal, MLL5: histone peptide array, GST-tagged reader, arrays performed twice, n of 4
Summary of the method: as §1

CHD5 (PPCC) = conditions: for Array Heatmap signal, CHD5 (PPCC): histone peptide array, GST-tagged reader, PPCC = Dual PHD + Dual Chromodomain, arrays performed twice, n of 4
Summary of the method: as §1

KDM7A = conditions: for Array Heatmap signal, KDM7A: histone peptide array, GST-tagged reader, arrays performed twice, n of 4
Summary of the method: as §1

PHF23 = conditions: for Array Heatmap signal, PHF23: histone peptide array, GST-tagged reader, arrays performed twice, n of 4
Summary of the method: as §1

DPF2 (PPC2W2) = conditions: for Array Heatmap signal, DPF2 (PPC2W2): histone peptide array, GST-tagged reader, PPC2W2 = Dual PHD + C2W2-type Zn-finger, arrays performed twice, n of 4
Summary of the method: as §1

ING1 = conditions: for Array Heatmap signal, ING1: histone peptide array, GST-tagged reader, arrays performed twice, n of 4
Summary of the method: as §1

KDM5B (1) = conditions: for Array Heatmap signal, KDM5B (1): histone peptide array, GST-tagged reader, arrays performed twice, n of 4
Summary of the method: as §1

KDM5A (3) = conditions: for Array Heatmap signal, KDM5A (3): histone peptide array, GST-tagged reader, arrays performed twice, n of 4
Summary of the method: as §1

ING3 = conditions: for Array Heatmap signal, ING3: histone peptide array, GST-tagged reader, arrays performed twice, n of 4
Summary of the method: as §1

ING4 = conditions: for Array Heatmap signal, ING4: histone peptide array, GST-tagged reader, arrays performed twice, n of 4
Summary of the method: as §1

TAF3 = conditions: for Array Heatmap signal, TAF3: histone peptide array, GST-tagged reader, arrays performed twice, n of 4
Summary of the method: as §1

KDM5A (1) = conditions: for Array Heatmap signal, KDM5A (1): histone peptide array, GST-tagged reader, arrays performed twice, n of 4
Summary of the method: as §1

BPTF (PB) = conditions: for Array Heatmap signal, BPTF (PB): histone peptide array, GST-tagged reader, PB = PHD + Bromodomain, arrays performed twice, n of 4
Summary of the method: as §1

PHF21A = conditions: for Array Heatmap signal, PHF21A: histone peptide array, GST-tagged reader, arrays performed twice, n of 4
Summary of the method: as §1

KDM5B (3) = conditions: for Array Heatmap signal, KDM5B (3): histone peptide array, GST-tagged reader, arrays performed twice, n of 4
Summary of the method: as §1

BAZ2B = conditions: for Array Heatmap signal, BAZ2B: histone peptide array, GST-tagged reader, arrays performed twice, n of 4
Summary of the method: as §1

PHF8 = conditions: for Array Heatmap signal, PHF8: histone peptide array, GST-tagged reader, arrays performed twice, n of 4
Summary of the method: as §1

RAG2 = conditions: for Array Heatmap signal, RAG2: histone peptide array, GST-tagged reader, arrays performed twice, n of 4
Summary of the method: as §1

ING2 = conditions: for Array Heatmap signal, ING2: histone peptide array, GST-tagged reader, arrays performed twice, n of 4
Summary of the method: as §1

AIRE (PP) = conditions: for Array Heatmap signal, AIRE (PP): histone peptide array, GST-tagged reader, arrays performed twice, n of 4
Summary of the method: as §1

TRIM66 (PB) = conditions: for Array Heatmap signal, TRIM66 (PB): histone peptide array, GST-tagged reader, PB = PHD + Bromodomain, arrays performed twice, n of 4
Summary of the method: as §1

KDM4C (TTP) = conditions: for Array Heatmap signal, KDM4C (TTP): histone peptide array, GST-tagged reader, TTP = Tandem Tudor domain + PHD, arrays performed twice, n of 4
Summary of the method: as §1

MORC3 (CW) = conditions: for Array Heatmap signal, MORC3 (CW): histone peptide array, GST-tagged reader, CW = CW-type Zn-finger, arrays performed twice, n of 4
Summary of the method: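 Readout is array binding signal, reported as the mean and standard deviation over four replicates. Each purified GST-fused PHD domain was incubated at 0.5 μM with a library of 293 modified histone peptides.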

ING5 = conditions: for Array Heatmap signal, ING5: histone peptide array, GST-tagged reader, arrays performed twice, n of 4
Summary of the method: as §1

CHD5 (PCC) = conditions: for Array Heatmap signal, CHD5 (PCC): histone peptide array, GST-tagged reader, PCC = PHD + Dual Chromodomain, arrays performed twice, n of 4
Summary of the method: as §1

PHF13 = conditions: for Array Heatmap signal, PHF13: histone peptide array, GST-tagged reader, arrays performed twice, n of 4
Summary of the method: as §1

SP140L = conditions: for Array Heatmap signal, SP140L: histone peptide array, GST-tagged reader, arrays performed twice, n of 4
Summary of the method: as §1

## H3.3K27vl (15-34): H3.3 15-34
PHF2; PHF2, sheet "Array Heatmap", each array performed twice, total n = 4
  Array Heatmap value (peptide array signal): 0.5263
DIDO1; DIDO1, sheet "Array Heatmap", each array performed twice, total n = 4
  Array Heatmap value (peptide array signal): 0.7045
PHRF1 (RP); PHRF1 (RP), sheet "Array Heatmap", each array performed twice, total n = 4
  Array Heatmap value (peptide array signal): 0.4435
CHD4 (PPCC); CHD4 (PPCC), sheet "Array Heatmap", each array performed twice, total n = 4
  Array Heatmap value (peptide array signal): 0.5729
MLL5; MLL5, sheet "Array Heatmap", each array performed twice, total n = 4
  Array Heatmap value (peptide array signal): 0.5405
CHD5 (PPCC); CHD5 (PPCC), sheet "Array Heatmap", each array performed twice, total n = 4
  Array Heatmap value (peptide array signal): 0.5207
KDM7A; KDM7A, sheet "Array Heatmap", each array performed twice, total n = 4
  Array Heatmap value (peptide array signal): 0.3156
PHF23; PHF23, sheet "Array Heatmap", each array performed twice, total n = 4
  Array Heatmap value (peptide array signal): 0.5229
DPF2 (PPC2W2); DPF2 (PPC2W2), sheet "Array Heatmap", each array performed twice, total n = 4
  Array Heatmap value (peptide array signal): 0.6907
ING1; ING1, sheet "Array Heatmap", each array performed twice, total n = 4
  Array Heatmap value (peptide array signal): 0.5627
KDM5B (1); KDM5B (1), sheet "Array Heatmap", each array performed twice, total n = 4
  Array Heatmap value (peptide array signal): 0.5524
KDM5A (3); KDM5A (3), sheet "Array Heatmap", each array performed twice, total n = 4
  Array Heatmap value (peptide array signal): 0.423
ING3; ING3, sheet "Array Heatmap", each array performed twice, total n = 4
  Array Heatmap value (peptide array signal): 0.4849
ING4; ING4, sheet "Array Heatmap", each array performed twice, total n = 4
  Array Heatmap value (peptide array signal): 0.4471
TAF3; TAF3, sheet "Array Heatmap", each array performed twice, total n = 4
  Array Heatmap value (peptide array signal): 0.2402
KDM5A (1); KDM5A (1), sheet "Array Heatmap", each array performed twice, total n = 4
  Array Heatmap value (peptide array signal): 0.4391
BPTF (PB); BPTF (PB), sheet "Array Heatmap", each array performed twice, total n = 4
  Array Heatmap value (peptide array signal): 0.3408
PHF21A; PHF21A, sheet "Array Heatmap", each array performed twice, total n = 4
  Array Heatmap value (peptide array signal): 0.4671
KDM5B (3); KDM5B (3), sheet "Array Heatmap", each array performed twice, total n = 4
  Array Heatmap value (peptide array signal): 0.4603
BAZ2B; BAZ2B, sheet "Array Heatmap", each array performed twice, total n = 4
  Array Heatmap value (peptide array signal): 0.4362
PHF8; PHF8, sheet "Array Heatmap", each array performed twice, total n = 4
  Array Heatmap value (peptide array signal): 0.3696
RAG2; RAG2, sheet "Array Heatmap", each array performed twice, total n = 4
  Array Heatmap value (peptide array signal): 0.2413
ING2; ING2, sheet "Array Heatmap", each array performed twice, total n = 4
  Array Heatmap value (peptide array signal): 0.6055
AIRE (PP); AIRE (PP), sheet "Array Heatmap", each array performed twice, total n = 4
  Array Heatmap value (peptide array signal): 0.3881
TRIM66 (PB); TRIM66 (PB), sheet "Array Heatmap", each array performed twice, total n = 4
  Array Heatmap value (peptide array signal): 0.5686
KDM4C (TTP); KDM4C (TTP), sheet "Array Heatmap", each array performed twice, total n = 4
  Array Heatmap value (peptide array signal): 0.4488
MORC3 (CW); MORC3 (CW), sheet "Array Heatmap", each array performed twice, total n = 4
  Array Heatmap value (peptide array signal): 0.3607
ING5; ING5, sheet "Array Heatmap", each array performed twice, total n = 4
  Array Heatmap value (peptide array signal): 0.3413
CHD5 (PCC); CHD5 (PCC), sheet "Array Heatmap", each array performed twice, total n = 4
  Array Heatmap value (peptide array signal): 0.7909
PHF13; PHF13, sheet "Array Heatmap", each array performed twice, total n = 4
  Array Heatmap value (peptide array signal): 0.5845
SP140L; SP140L, sheet "Array Heatmap", each array performed twice, total n = 4
  Array Heatmap value (peptide array signal): 0.3739

## H3.3K36ac (27-45): H3.3 27-45 (KSAPSTGGVK(Ac)KPHRYRPGT; UniProt P84243 28-46, looked up, fragment)
PHF2
  Array Heatmap signal, PHF2: 0.4404
DIDO1
  Array Heatmap signal, DIDO1: 0.652
PHRF1 (RP)
  Array Heatmap signal, PHRF1 (RP): 0.3938
CHD4 (PPCC)
  Array Heatmap signal, CHD4 (PPCC): 0.5592
MLL5
  Array Heatmap signal, MLL5: 0.5589
CHD5 (PPCC)
  Array Heatmap signal, CHD5 (PPCC): 0.5516
KDM7A
  Array Heatmap signal, KDM7A: 0.4861
PHF23
  Array Heatmap signal, PHF23: 0.4952
DPF2 (PPC2W2)
  Array Heatmap signal, DPF2 (PPC2W2): 0.6599
ING1
  Array Heatmap signal, ING1: 0.4834
KDM5B (1)
  Array Heatmap signal, KDM5B (1): 0.6658
KDM5A (3)
  Array Heatmap signal, KDM5A (3): 0.4209
ING3
  Array Heatmap signal, ING3: 0.4435
ING4
  Array Heatmap signal, ING4: 0.4648
TAF3
  Array Heatmap signal, TAF3: 0.2777
KDM5A (1)
  Array Heatmap signal, KDM5A (1): 0.4872
BPTF (PB)
  Array Heatmap signal, BPTF (PB): 0.3342
PHF21A
  Array Heatmap signal, PHF21A: 0.4713
KDM5B (3)
  Array Heatmap signal, KDM5B (3): 0.5076
BAZ2B
  Array Heatmap signal, BAZ2B: 0.4933
PHF8
  Array Heatmap signal, PHF8: 0.3248
RAG2
  Array Heatmap signal, RAG2: 0.2614
ING2
  Array Heatmap signal, ING2: 0.5814
AIRE (PP)
  Array Heatmap signal, AIRE (PP): 0.5459
TRIM66 (PB)
  Array Heatmap signal, TRIM66 (PB): 0.5797
KDM4C (TTP)
  Array Heatmap signal, KDM4C (TTP): 0.5383
MORC3 (CW)
  Array Heatmap signal, MORC3 (CW): 0.2989
ING5
  Array Heatmap signal, ING5: 0.3709
CHD5 (PCC)
  Array Heatmap signal, CHD5 (PCC): 0.818
PHF13
  Array Heatmap signal, PHF13: 0.6099
SP140L
  Array Heatmap signal, SP140L: 0.378

## H3.3K36me2 (27-45): H3.3 27-45 (KSAPSTGGV[Lys(Me2)]KPHRYRPGT; UniProt P84243 28-46, looked up, fragment)
PHF2
  Array Heatmap signal, PHF2: 0.5053
DIDO1
  Array Heatmap signal, DIDO1: 0.7878
PHRF1 (RP)
  Array Heatmap signal, PHRF1 (RP): 0.4622
CHD4 (PPCC)
  Array Heatmap signal, CHD4 (PPCC): 0.5698
MLL5
  Array Heatmap signal, MLL5: 0.5651
CHD5 (PPCC)
  Array Heatmap signal, CHD5 (PPCC): 0.6024
KDM7A
  Array Heatmap signal, KDM7A: 0.3737
PHF23
  Array Heatmap signal, PHF23: 0.5877
DPF2 (PPC2W2)
  Array Heatmap signal, DPF2 (PPC2W2): 0.6778
ING1
  Array Heatmap signal, ING1: 0.5396
KDM5B (1)
  Array Heatmap signal, KDM5B (1): 0.6701
KDM5A (3)
  Array Heatmap signal, KDM5A (3): 0.4963
ING3
  Array Heatmap signal, ING3: 0.5215
ING4
  Array Heatmap signal, ING4: 0.4773
TAF3
  Array Heatmap signal, TAF3: 0.2867
KDM5A (1)
  Array Heatmap signal, KDM5A (1): 0.505
BPTF (PB)
  Array Heatmap signal, BPTF (PB): 0.3735
PHF21A
  Array Heatmap signal, PHF21A: 0.4763
KDM5B (3)
  Array Heatmap signal, KDM5B (3): 0.5383
BAZ2B
  Array Heatmap signal, BAZ2B: 0.4965
PHF8
  Array Heatmap signal, PHF8: 0.3824
RAG2
  Array Heatmap signal, RAG2: 0.3087
ING2
  Array Heatmap signal, ING2: 0.5971
AIRE (PP)
  Array Heatmap signal, AIRE (PP): 0.4867
TRIM66 (PB)
  Array Heatmap signal, TRIM66 (PB): 0.6104
KDM4C (TTP)
  Array Heatmap signal, KDM4C (TTP): 0.5418
MORC3 (CW)
  Array Heatmap signal, MORC3 (CW): 0.4027
ING5
  Array Heatmap signal, ING5: 0.3908
CHD5 (PCC)
  Array Heatmap signal, CHD5 (PCC): 0.8212
PHF13
  Array Heatmap signal, PHF13: 0.6587
SP140L
  Array Heatmap signal, SP140L: 0.3879

From publication PMC6979384, “Characterization of the plant homeodomain (PHD) reader family for their histone tail interactions” (Epigenetics & Chromatin, 2020)
